Measurements as given in ChEMBL document CHEMBL1201862, “PubChem BioAssay data set” (2004).
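Method: 48-hour compound exposure of cells in 96-well plates, five concentrations, linear interpolation of endpoints. GI50 = concentration required for 50% inhibition of growth.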 Activity calls are given as the source filed them. Cut-off read from the data, not from the text of the source: active = GI50 up to about 1.1 µM and inactive = higher.

Legend:
Assay in all cases: NCI tumour cell line growth inhibition, 48 h
[1] = test system: HT-29
[2] = test system: SN12C
[3] = test system: KM12
[4] = test system: TK-10
[5] = test system: U-251
[6] = test system: NCI-H460
[7] = test system: HOP-92
[8] = test system: EKVX
[9] = test system: SNB-75
[10] = test system: IGROV-1
[11] = test system: SF-295
[12] = test system: NCI-H522
[13] = test system: Hs-578T
[14] = test system: MCF7
[15] = test system: MDA-MB-435
[16] = test system: NCI/ADR-RES
[17] = test system: DU-145
[18] = test system: HL-60

Measured: GI50

C=C(C)C(=O)OC1C/C(CO)=C\C(O)C/C(C)=C/C2OC(=O)C(=C)C21 (stereo unspecified)
inactive: [1] 17.6 µM | [2] 20 µM | [3] 19.2 µM | [4] 21.1 µM | [5] > 100 µM | [6] 17.7 µM | [7] 20.8 µM | [8] 25.2 µM | [9] 32.4 µM | [10] 48.4 µM | [11] > 100 µM | [12] 12.8 µM

CC(C)(O)/C=C\P(C)(=O)c1ccccc1 (stereo unspecified)
inactive: [13] > 100 µM | [1] > 100 µM | [2] > 100 µM | [3] > 100 µM | [14] > 100 µM | [4] > 100 µM | [5] > 100 µM | [6] > 100 µM | [15] > 100 µM | [16] > 100 µM | [7] > 100 µM | [8] > 100 µM | [9] > 100 µM | [10] > 100 µM | [11] > 100 µM | [12] > 100 µM | [17] > 100 µM

COc1nc2ccc(COc3ccc(C(=O)O)cc3)cc2nc1OC
inactive: [1] > 100 µM | [2] > 100 µM | [18] 53.8 µM | [3] > 100 µM | [14] > 100 µM | [5] 87.1 µM | [6] > 100 µM | [15] 33.7 µM | [16] 88.1 µM | [7] 47.5 µM | [8] > 100 µM | [9] 11.7 µM | [10] > 100 µM | [11] 32.9 µM | [12] > 100 µM | [17] > 100 µM

CC(C)(C)c1ccc(O)c(C(c2ccc([N+](=O)[O-])cc2)c2cc(C(C)(C)C)ccc2O)c1
inactive: [13] 3.61 µM | [1] 1.87 µM | [2] 2.38 µM | [18] 2.23 µM | [3] 1.89 µM | [14] 2 µM | [4] 2.53 µM | [5] 2.28 µM | [15] 1.78 µM | [16] 2.73 µM | [7] 2.02 µM | [8] 1.97 µM | [9] 2.05 µM | [10] 2.15 µM | [11] 1.98 µM | [12] 2.11 µM | [17] 2.39 µM

C#CCC[C@@H]1O[C@@]1(C)CC/C=C(\C)CC/C=C/C=O
inactive: [1] 37.2 µM | [2] 30.3 µM | [18] 23.9 µM | [3] 36.9 µM | [5] 22 µM | [6] 41.1 µM | [7] 28.5 µM | [8] 58.3 µM | [9] 42.6 µM | [10] 22.1 µM | [11] 26.5 µM

Oc1ccc(Cl)cc1-c1cc(-c2ccccc2)nc(S)n1
inactive: [13] 29.2 µM | [1] > 100 µM | [2] 93.1 µM | [18] > 100 µM | [3] 92.5 µM | [14] > 100 µM | [4] 30.5 µM | [5] 17.4 µM | [6] > 100 µM | [15] > 100 µM | [16] 97.9 µM | [7] 19.2 µM | [8] 4.52 µM | [9] 21.5 µM | [10] > 100 µM | [11] 28.6 µM | [12] > 100 µM | [17] > 100 µM

O=C1CCC[C@H]2O[C@@H](COCc3ccccc3)C[C@@H]12
inactive: [13] > 100 µM | [1] > 100 µM | [2] > 100 µM | [18] > 100 µM | [3] > 100 µM | [14] > 100 µM | [4] > 100 µM | [5] > 100 µM | [6] > 100 µM | [15] > 100 µM | [16] > 100 µM | [7] > 100 µM | [9] > 100 µM | [11] > 100 µM | [17] > 100 µM

CCN(CC)c1ccc(/N=N\c2ccc(-c3nc4ccc[n+](C)c4s3)cc2)cc1
inactive: [1] 5.25 µM | [2] 4.29 µM | [18] 1.77 µM | [3] 2.76 µM | [4] 20 µM | [5] 4.07 µM | [6] 4.01 µM | [7] 10.6 µM | [8] 24 µM | [9] 9.4 µM | [10] 8.18 µM | [11] 17.8 µM | [12] 3.06 µM

Cc1cccc2c1C(=O)C1(Cc3ccccc3C1=O)C2 (stereo unspecified)
inactive: [13] 48.3 µM | [1] > 100 µM | [2] > 100 µM | [18] > 100 µM | [14] > 100 µM | [4] > 100 µM | [5] > 100 µM | [6] 70.3 µM | [15] > 100 µM | [16] 87.1 µM | [7] > 100 µM | [8] > 100 µM | [9] 46.5 µM | [10] > 100 µM | [11] > 100 µM | [12] > 100 µM | [17] > 100 µM
